Where a name gives a salt, the structure may show the parent alone.
Experiments:
Histamine H3 receptor [1] = target: T1, Histamine H3 receptor (Cavia porcellus, UniProt Q9JI35); assay: Histamine H3 radioligand binding assay, guinea pig cortex ([3H]-R-α-methylhistamine); details: guinea pig cortex membranes, competition with 1 nM [3H]-R-α-methylhistamine; for Ki: read-out: pKi (Guinea pig cortex) (converted)
In short: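 Male Dunkin Hartley guinea pig cortical membranes incubated 165 min at 21±3 °C in 20 mM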

Histamine H3 receptor [2] = target: T1, Histamine H3 receptor; assay: Histamine H3 functional assay, guinea pig ileum (ileal longitudinal muscle, myenteric plexus); design: species or system tissue; details: antagonist affinity from rightward shift of R-(α)-methylhistamine E/[A] curves (Schild), typical variance ±0.15 log units; for Kb: read-out: pKb (Guinea pig ileum) (converted)
In short: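 Longitudinal muscle–myenteric plexus strips from male Dunkin-Hartley guinea pigs (250-300 g), Krebs-Henseleit buffer at 37±1° C, field-stimulated at 0.1 Hz, 0.5 msec, supramaximal voltage; isometric recording. Cumulative R-(α)-methylhistamine E/[A] curves as % inhibition of twitch height; antagonist affinity by Schild analysis of rightward shift.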

T1 sequence (Q9JI35 whole entry): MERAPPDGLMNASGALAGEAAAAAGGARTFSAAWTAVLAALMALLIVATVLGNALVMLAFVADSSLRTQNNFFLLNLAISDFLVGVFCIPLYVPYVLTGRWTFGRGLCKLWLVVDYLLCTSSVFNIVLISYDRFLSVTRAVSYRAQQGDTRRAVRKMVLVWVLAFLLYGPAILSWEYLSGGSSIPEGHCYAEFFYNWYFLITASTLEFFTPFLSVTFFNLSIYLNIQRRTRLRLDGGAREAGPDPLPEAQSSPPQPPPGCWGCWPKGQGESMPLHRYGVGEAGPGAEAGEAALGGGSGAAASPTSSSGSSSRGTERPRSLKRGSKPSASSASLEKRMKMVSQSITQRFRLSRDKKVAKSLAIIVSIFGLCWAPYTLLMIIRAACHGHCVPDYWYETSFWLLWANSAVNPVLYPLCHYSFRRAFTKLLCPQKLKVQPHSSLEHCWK

Row | Molecule | Ki (Histamine H3 receptor [1]) [nM] | Kb (Histamine H3 receptor [2]) [nM] | pKi (Guinea pig cortex) (Histamine H3 receptor [1]) | pKb (Guinea pig ileum) (Histamine H3 receptor [2]) | pKi (Guinea pig cortex) (Histamine H3 receptor [1]; bis-hydrochloride)
1 | N=C(NCCCN1CCCC1)NCCCC12CC3CC(CC(C3)C1)C2 [Example 34, N-(3-Adamantan-1-yl-propyl)-N′-(3-pyrrolidin-1-yl-propyl)-guanidine bis-hydrochloride] | 316 | 316 |  |  | 
2 | Cl.Cl.N=C(NCCCN1CCCC1)NCc1ccc2ccccc2c1 [Example 4, N-Naphthalen-2-yl-methyl-N′-(3-pyrrolidin-1-yl-propyl)-guanidine bis-hydrochloride] |  |  | 7.1 | 6.5 | 
3 | Cl.Cl.N=C(NCCCCN1CCCC1)NCc1ccc(-c2ccccc2)cc1 [Example 54, N-Biphenyl-4-yl-methyl-N′-(4-pyrrolidin-1-yl-butyl)-guanidine bis-hydrochloride] |  |  | 7.3 | 7.1 | 
4 | N=C(NCCCN1CCCC1)NCCC1CCCCC1 [Example 42, N-(2-Cyclohexyl-ethyl)-N′-(3-pyrrolidin-1-yl-propyl)-guanidine bis-hydrochloride] | 25.1 | 398 |  |  | 
5 | Cl.Cl.N=C(NCCCCCN1CCCC1)NCC1CCCCC1 [Example 41, N-Cyclohexyl-methyl-N′-(5-pyrrolidin-1-yl-pentyl)-guanidine bis-hydrochloride] |  |  | 8.9 | 7.5 | 
6 | CN1CCC[C@H]1CCCNS(=O)(=O)Cc1ccc(Br)cc1 [Example 101, N-(3-(1-Methyl-pyrrolidin-2S-yl)-propyl)-(4-bromophenyl)-methanesulfonamide] | 251 | 1000 |  |  | 
7 | N=C(NCCCCN1CCCC1)NCCCC12CC3CC(CC(C3)C1)C2 [Example 36, N-(3-Adamantan-1-yl-propyl)-N′-(4-pyrrolidin-1-yl-butyl)-guanidine bis-hydrochloride] | 50.1 | 63.1 |  |  | 
8 | C[C@@H](NC(=N)NCCCCN1CCCC1)C1CCCCC1 [Example 44, N-(1(R)-Cyclohexyl-ethyl)-N′-(4-pyrrolidin-1-yl-butyl)-guanidine bis-hydrochloride] | 1.58 | 25.1 |  |  | 
9 | CN1CCC[C@H]1CCCNS(=O)(=O)CCC1CCCCC1 [Example 142, N-(3-(1-Methyl-pyrrolidin-2S-yl)-propyl)-2-cyclohexyl-ethanesulfonamide] | 631 | 2000 |  |  | 
10 | N=C(NCCCN1CCCC1)NCCC12CC3CC(CC(C3)C1)C2 [Example 33, N-(2-Adamantan-1-yl-ethyl)-N′-(3-pyrrolidin-1-yl-propyl)-guanidine bis-hydrochloride] | 79.4 | 200 |  |  | 
11 | CN1CCC[C@H]1CCCNS(=O)(=O)Cc1ccccc1 [Example 100, N-(3-(1-Methyl-pyrrolidin-2S-yl)-propyl)-phenyl-methanesulfonamide] | 200 | 501 |  |  | 
12 | N=C(N)N(CCCCCCN1CCCC1)CCC12CC3CC(CC(C3)C1)C2 [Example 78, N-(2-Adamantan-1-yl-ethyl)-N-(6-pyrrolidin-1-yl-hexyl)-guanidine bis-hydrochloride] | 79.4 | 31.6 |  |  | 
13 | Cl.Cl.N=C(NCCCCCN1CCCCCC1)NCC12CC3CC(CC(C3)C1)C2 [Example 61, N-Adamantan-1-yl-methyl-N′-(5-azepan-1-yl-pentyl)-guanidine bis-hydrochloride] |  |  | 8.1 | 7.8 | 
14 | CN1CCC[C@H]1CCCNS(=O)(=O)c1ccc2ccccc2c1 [Example 91, N-(3-(1-Methyl-pyrrolidin-2S-yl)-propyl)-2-naphthalenesulfonamide] | 126 | 501 |  |  | 
15 | CN1CCC[C@H]1CCCNS(=O)(=O)NCC1CCCCC1 [Example 110, N-Cyclohexyl-methyl-N′-(3-(1-methyl-pyrrolidin-2S-yl)-propyl)-sulfamide] | 501 | 2510 |  |  | 
16 | N-Adamantan-1-yl-methyl-N′-(3-pyrrolidin-1-yl-propyl)-guanidine bis-hydrochloride [Example 28] |  |  | 7.5 | 6.7 | 
17 | Cl.Cl.N=C(NCCCCCCN1CCCC1)NCC12CC3CC(CC(C3)C1)C2 [Example 77, N-Adamantan-1-yl-methyl-N-(6-pyrrolidin-1-yl-hexyl)-guanidine bis-hydrochloride] |  |  |  | 8.0 | 8.2

Further lines, with some results ahead:

Row | Ki (Histamine H3 receptor [1]) [nM] | Kb (Histamine H3 receptor [2]) [nM] | Molecule | pKi (Guinea pig cortex) (Histamine H3 receptor [1]) | pKb (Guinea pig ileum) (Histamine H3 receptor [2]) | pKi (Guinea pig cortex) (Histamine H3 receptor [1]; bis-hydrochloride)
18 | 126 | 200 | CN1CCCC1CCCCNS(=O)(=O)NCc1ccc(Cl)cc1 (stereo not drawn) [Example 116, N-(4-Chlorobenzyl)-N′-(4-(1-methyl-pyrrolidin-2S-yl)-butyl)-sulfamide] |  |  | 
19 | 1 | 200 | N=C(NCCCN1CCCC1)NCCc1ccc(Cl)cc1 [Example 20, N-(2(4-Chlorophenyl)ethyl)-N′-(3-pyrrolidin-1-yl-propyl)-guanidine bis-hydrochloride] |  |  | 
20 | 15.8 | 316 | CN(Cc1ccccc1)C(=N)NCCCCCN1CCCC1 [Example 50, N-Benzyl-N-methyl-N′-(5-pyrrolidin-1-yl-pentyl)-guanidine bis-hydrochloride] |  |  | 
21 | 5.01 | 50.1 | N=C(NCCCCCN1CCCC1)NCc1ccc(Cl)cc1 [Example 18, N-(4-Chlorobenzyl)-N′-(5-pyrrolidin-1-yl-pentyl)-guanidine bis-hydrochloride] |  |  | 
22 | 5.01 | 50.1 | N=C(NCCCCN1CCCC1)NCc1ccc(Cl)cc1 [Example 17] |  |  | 
23 | 126 | 316 | CN1CCC[C@H]1CCCN(C)S(=O)(=O)NCc1ccc(Cl)cc1 [Example 122, N-(4-Chlorobenzyl)-N′-methyl-N′-(3-(1-methyl-pyrrolidin-2S-yl)propyl)-sulfamide] |  |  | 
24 | 7.94 | 79.4 | N=C(NCCCCCN1CCCC1)NCc1ccc2ccccc2c1 [Example 53, N-(Naphthalen-2-yl-methyl)-N′-(5-pyrrolidin-1-yl-pentyl)guanidine bis-hydrochloride] |  |  | 
25 | 15.8 | 2000 | CC(C)CN1CCC[C@H]1CCCNS(=O)(=O)NCc1ccc(Cl)cc1 [Example 119] |  |  | 
26 | 20 | 63.1 | N=C(NCCCCN1CCCC1)NCc1ccc(C2CCCCC2)cc1 [Example 56, N-(4-Cyclohexylbenzyl)-N′-(4-pyrrolidin-1-yl-butyl)-guanidine bis-hydrochloride] |  |  | 
27 | 25.1 | 126 | C[C@@H](c1ccccc1)N(CCCCCN1CCCC1)C(=N)N [Example 75, N-(1-(S)-Phenyl-ethyl)-N-(5-pyrrolidin-1-yl-pentyl)-guanidine bis-hydrochloride] |  |  | 
28 | 316 | 316 | CN1CCCC1CCCCS(=O)(=O)NCc1ccc(Cl)cc1 (stereo not drawn) [Example 136, N-(4-Chlorobenzyl)-4-(1-methyl-pyrrolidin-2S-yl)-butanesulfonamide] |  |  | 
29 | 39.8 | 158 | N=C(NCCCN1CCCC1)NCCc1ccc(Br)cc1 [Example 26, N-(2-(4-Bromophenyl)ethyl)-N′-(3-pyrrolidin-1-yl-propyl)-guanidine bis-hydrochloride] |  |  | 
30 | 7.94 | 100 | N=C(NCCCCCN1CCCC1)N1CCc2ccccc2C1 [Example 51, N-(5-Pyrrolidin-1-yl-pentyl)-3,4-dihydro-1H-isoquinoline-2-carboxamidine bis-hydrochloride] |  |  | 
31 | 63.1 | 631 | CNC(=NCCCN1CCCC1)NCc1ccc(Cl)cc1 [Example 64, N-(4-Chlorobenzyl)-N′-methyl-N″-(3-pyrrolidin-1-yl-propyl)-guanidine] |  |  | 
32 | 50.1 | 158 | N=C(NCCCc1ccc(Cl)cc1)NCCCN1CCCC1 [Example 21, N-(3-(4-Chlorophenyl)propyl)-N′-(3-pyrrolidin-1-yl-propyl)-guanidine bis-hydrochloride] |  |  | 
33 | 251 | 631 | O=S(=O)(NCCCCN1CCCC1)c1ccc2ccccc2c1 [Example 83, N-(4-Pyrrolidin-1-yl-butyl)-2-naphthalenesulfonamide] |  |  | 
34 | 39.8 | 501 | N=C(NCCCN1CCCC1)NCc1ccccc1Br [Example 11, N-(2-Bromobenzyl)-N′-(3-pyrrolidin-1-yl-propyl)-guanidine bis-hydrochloride] |  |  | 
35 | 7.94 | 79.4 | N=C(NCCCCCN1CCCC1)NCCc1ccc(Cl)cc1 [Example 25, N-(2-(4-Chlorophenyl)ethyl)-N′-(5-pyrrolidin-1-yl-pentyl)-guanidine bis-hydrochloride] |  |  | 
36 | 50.1 | 398 | N=C(NCCCN1CCCC1)NCc1ccc(I)cc1 [Example 6, N-(4-Iodobenzyl)-N′-(3-pyrrolidin-1-yl-propyl)-guanidine bis-hydrochloride] |  |  | 
37 | 316 | 1000 | O=S(=O)(NCCCN1CCCC1)c1ccc2ccccc2c1 [Example 82, N-(3-Pyrrolidin-1-yl-propyl)-2-naphthalenesulfonamide] |  |  | 
38 | 5.01 | 79.4 | CCCCNC(=N)NCCCCCN1CCCC1 [Example 65, N-Butyl-N′-(5-pyrrolidin-1-yl-pentyl)-guanidine] |  |  | 
39 | 5.01 | 3.98 | N=C(N)N(CCCCCCN1CCCC1)Cc1ccc(Cl)cc1 [Example 70, N-(4-Chlorobenzyl)-N-(6-pyrrolidin-1-yl-hexyl)-guanidine bis-hydrochloride] |  |  | 
40 | 5.01 | 3.16 | N=C(N)N(CCCCCCN1CCCCC1)Cc1ccc(Cl)cc1 [Example 72, N-(4-Chlorobenzyl)-N-(6-piperidin-1-yl-hexyl)-guanidine bis-hydrochloride] |  |  | 

Source: US6878736B1, “Histamine H3 receptor ligands” (James Black Foundation Limited, priority 1998, dated 2005)
